Data published in EP1214938A2, “Modulation of cellular response to external stimuli” (priority 1991, dated 1992).

How the values were obtained:
NIH3T3 cell line (D5C3) = assay: Blocking transformed phenotype of D5C3 cells (temperature-sensitive v-abl); type: cell-based, murine; set-up: key to Phenotype: 1+ represents a typical fibroblastic appearance of nontransformed NIH3T3 cells; visually graded on a scale of + (1+) to +++++ (5+); visually graded on a scale of + (1+) to +++++ (5+); +++++: 5+ represents a fully transformed phenotype; key to Growth: the nontransformed cells were scored as 1+ (for slower growth); graded from + (1+) to +++++ (5+); graded from + (1+) to +++++ (5+); +++++: the transformed cells were scored as 5+ (for rapid growth); conditions: for Growth / Phenotype: ciprofloxacin 50 µg/ml; for Phenotype: visually graded
Protocol: In an additional assay method of the invention, the effect of coadministering a xanthine compound with a candidate inhibitor for P450 can be assessed using transformed NIH3T3-[…] cells and comparing the effect on transformation phenotype among control, incubation with the xanthine derivative alone, and coincubation of the xanthine derivative with the P450 enzyme inhibitor. An NIH3T3 cell line ([…]) provides target cells which were transformed by an activated oncogene. The cells were transformed with a temperature-sensitive v-abl mutant gene. This mutant gene encodes a temperature-sensitive v-abl protein that produces a non-oncogenic product at a non-permissive temperature due to a lack of tyrosine phosphorylation. The cells were incubated at the permissive temperature (33°C) for 5 days after passage with and without pentoxifylline (1 mM).

T cell proliferation = conditions: Singer et al.; cited from earlier work
CD3-positive lymphocytes = assay: Proliferation (thymidine uptake) of CD2-positive cells stimulated by anti-CD3 monoclonal antibody; type: cell-based
Protocol: In these experiments, freshly isolated, CD2-positive cells were stimulated by a solid-phase monoclonal antibody to acquire a CD3 phenotype, and then PTX was added. […] The block in proliferation could not be overcome by addition of either tumor necrosis factor (Figures 20 and 21) or IL-1 (Figure 21). […] The cytokines and PTX were added at culture inception and the cells were harvested after 5 days.

[1] = system: Steel factor transcripts in marrow stromal cell lines; assay: Northern blot of Steel factor transcripts; type: cell-based; conditions: three-hour incubation; passaged (native) or cloned (CDCL) lines
[2] = system: IL-6 transcripts in bone marrow stromal cells; assay: Northern blot of IL-6 transcripts; type: cell-based; conditions: three-hour exposure, increasing concentrations
[3] = system: Human glomerular mesangial cells; assay: Invention assay: HPLC of lipids (PA, DAG) extracted from IL-1-stimulated mesangial cells; type: cell-based
Protocol: The compounds of Formula I are shown to modulate the effects of primary stimuli which elevate levels of the relevant subspecies of PA and DAG using the assay system of the invention. In general for the assay, the cells to be tested are first incubated with the primary stimulating agent for various time periods and fixed in ice-cold methanol. The lipids are extracted using, for example, chloroform:methanol 2:1 (v/v), and the extracts are then subjected to HPLC as described by Bursten and Harris, Biochemistry (1991) . In this method, a Rainin mu-Porasil column is used with a 3:4 hexane:propanol organic carrier and a 1-10% water gradient during the first 10 minutes of separation. Detection of the peaks in the elution pattern is by absorption in the range of ultraviolet which detects isolated double bonds. Thus, the relevant peaks of unsaturated PA and DAG are shown in the elution pattern. It is important to note that the assay method permits discrimination between various forms of PA and DAG so that those relevant to the pathway affected by the compounds of Formula I can be measured directly. Confirmation of the nature of the acyl substituents of these components is accomplished using fast-atom bombardment mass spectroscopy. Thus, the relevant unsaturated (non-arachidonic) PA and DAG subspecies may be detected. The time periods employed are 5-60 seconds after stimulation with the primary stimulus, such as a cytokine. This technique permits assessment of the levels of various lipid components as a function of time. […]
The extracts were subjected to HPLC on a Rainin mu-Porasil column with a 3:4 hexane:propanol organic carrier and a 1-10% water gradient during the first 10 minutes of separation. The relative concentration of each lipid species is determined using absorption at 206 nm (A206), which follows unsaturated acyl content of lipid species. […] The absolute mass of each lipid species is determined by isolation of the lipid using a fraction collector, repurification on the HPLC column. […] Protein concentration is determined using the Bradford technique. […]

[4] = system: SV40 T-antigen-transformed human kidney mesangial cells; assay: Growth of transformed mesangial cells by tritiated thymidine uptake; type: cell-based
Protocol: SV40 T-antigen-transformed human kidney mesangial cells were cultured under standard conditions with rhIL-1 or with TNFα with and without pentoxifylline (PTX). Transformed mesangial cells grow independently of added growth factors, but IL-1 and TNFα are the normal proliferative signals for mesangial cells. As was shown in Example 1, when IL-1 is added to kidney mesangial cells, within 30 seconds LPAAT and PAPH are activated; the effect of both of these enzymes is inhibited by pentoxifylline at 1 mM. In this experiment, the growth of the treated cells was measured using tritiated thymidine uptake.

[5] = system: NIH3T3 murine fibroblast cells transformed with a mutated K-ras; assay: Subcutaneous tumors of K-ras-transformed NIH3T3 cells in nude mice; type: in vivo; conditions: after eight days, 10^6 cells subcutaneously
Protocol: Nude mice were injected subcutaneously with 10^6 cells and were treated either once or twice daily with 100 mg/kg pentoxifylline intraperitoneally. Control animals treated with only saline injections developed tumors that weighed 2.5 ±0.2 g after eight days. Animals treated once daily with pentoxifylline had tumors that weighed only 0.45 ±0.2 g while animals treated twice daily had tumors that weighed 0.2 ±0.1 g.

[6] = system: IL-8 encoding mRNA in U937 and THP1; assay: Northern blot of IL-8 mRNA after lipopolysaccharide or GM-CSF induction; type: cell-based
Protocol: The murine fibrosarcoma cell line, L929, was also tested as an indicator for assays of TNF cytotoxicity. Cell growth was assayed by crystal violet staining using optical density as a measure of growth. […] Finally, two monocytic cell lines, U937 and THP1, were used to test the effect of pentoxifylline on the […] of the cytokine IL-8. The cell lines in culture were induced to upregulate IL-8 production by lipopolysaccharide or GM-CSF.

[7] = system: HLA-DR, the transferrin receptor (CD71), the IL-2 receptor (CD25), and CD69; conditions: MLR-stimulated lymphocytes; Singer et al.; cited from earlier work
[8] = system: TNF transcripts in CD3 positive lymphocytes; assay: Northern blot, mixed lymphocyte reaction; type: cell-based; conditions: Figure 19A
[9] = system: NIH3T3 murine fibroblast cells transformed with a mutated K-ras; assay: Growth and anchorage-independent growth in soft agar of K-ras-transformed cells in vitro; type: cell-based; conditions: Mus musculus, NIH3T3, read-out: concentrations resulting in inhibition of growth and suppression of anchorage-independent growth
Protocol: Additionally, NIH3T3 murine fibroblast cells transformed with a mutated K-ras (codon 12 Gly-Val) were tested in vitro and in nude mice.

[10] = system: IL-2 transcripts in CD3 positive lymphocytes; assay: Northern blot, mixed lymphocyte reaction; type: cell-based; conditions: Figure 19B
[11] = system: lyso-PA acyl transferase (LPAAT); assay: Invention assay (lipid HPLC after IL-1), indirect enzyme inhibition; type: cell-based, Human; conditions: IL-1-stimulated HMC
Protocol: (§1) As shown hereinbelow, a simple assay involving incubation of target cells with primary stimulus in the presence or absence of the xanthine derivative followed by extraction and analysis of lipid content is diagnostic of the levels of various members of the foregoing pathway as characterized by their fatty acyl content. This assay indirectly measures the effect of the xanthine derivative on the relevant enzymes lysophosphatidic acid acyltransferase (LPAAT) and phosphatidic acid phosphoryl hydrolase (PAPH). In general, inhibition of these enzymes is effected by the xanthine derivative, thus resulting in lowering of the levels of the relevant species of the particular acylated subspecies of PA and DAG intermediates.
(§2) This example also illustrates the method of the invention.
(§3) Human glomerular mesangial cells were incubated with IL-1 for various time periods of 5-60 seconds and the cells were fixed in ice-cold methanol, and the lipids extracted using chloroform:methanol 2:1 (v/v). It is very important that the fixing/extraction process be conducted quickly so that the decomposition of unstable intermediates is halted.
(§4) The extracts were subjected to HPLC on a Rainin mu-Porasil column with a 3:4 hexane:propanol organic carrier and a 1-10% water gradient during the first 10 minutes of separation. The relative concentration of each lipid species is determined using absorption at 206 nm (A206), which follows unsaturated acyl content of lipid species. […] The absolute mass of each lipid species is determined by isolation of the lipid using a fraction collector, repurification on the HPLC column. Determination of phospholipid phosphorus is as nmoles/mg cellular protein. Protein concentration is determined using the Bradford technique.
(§5) Thus, the lyso PA that accumulates contains high levels of unsaturated fatty acids. Pentoxifylline in a dose range greater than 500 µM results in inhibition both of phosphatidate phosphohydrolase and of lyso PA acyl transferase.

[12] = system: phosphatidic acid phosphohydrolase (PAPH); assay: as above; type: cell-based, Human
Protocol: as §1, §2, §3, §4, §5

[13] = system: human leukemic cell line (Mo7e); assay: GM-CSF-stimulated colony formation in semisolid medium; type: cell-based; conditions: colonies counted 10 days after culture initiation; Figure 14
Protocol: The human leukemic cell line (Mo7e) is dependent on added granulocyte-macrophage colony-stimulating factor (GM-CSF) for growth. Mo7e cells were cultured in semisolid medium with and without pentoxifylline (PTX) and rhGM-CSF. Colonies were counted 10 days after culture initiation under an inverted microscope. […] PTX thus prevents the up-regulation of activation-associated genes which inhibit proliferation.

[14] = system: IL-2 receptor transcripts in CD3 positive lymphocytes; assay: Northern blot, mixed lymphocyte reaction; type: cell-based; conditions: Figure 19C
[15] = system: TNFα transcripts in U937 cells; assay: Northern blot of TNF transcripts after LPS induction; type: cell-based; conditions: 1 mM PTX; LPS for three hours
[16] = 33°C, 5 days, pentoxifylline 1 mM

## O=C(O)c1cn(C2CC2)c2cc(N3CCNCC3)c(F)cc2c1=O [Ciprofloxacin]
NIH3T3 cell line (D5C3); [16]
  Growth: ++
  Phenotype: ++
NIH3T3 cell line (D5C3); pentoxifylline 1 mM, Ciprofloxacin 50 µg/ml
  inhibition of the transformed phenotype: significant effect

## Cn1c(=O)n(CCCCC(C)(C)O)c(=O)c2[nH]cnc21 [HWA138]
T cell proliferation
  suppression of T cell proliferation: minimal or no suppression

## CCOCn1cnc2c1c(=O)n(CCCCC(C)(C)O)c(=O)n2C [HWA448]
T cell proliferation
  suppression of T cell proliferation: active

## CC(O)CCCCn1c(=O)c2c(ncn2C)n(C)c1=O (stereo not drawn) [M1, 1-(5-hydroxyhexyl) -3,7-dimethylxanthine]
T cell proliferation
  suppression of T cell proliferation: active

## CC(O)C(O)CCCn1c(=O)c2c(ncn2C)n(C)c1=O (stereo not drawn) [M3, 1-(4,5-dihydroxyhexyl) -3,7-dimethylxanthine]
T cell proliferation
  suppression of T cell proliferation: minimal or no suppression

## Cn1cnc2c1c(=O)n(CCCCC(=O)O)c(=O)n2C [M4, 1-(4-carboxybutyl)-3,7-dimethylxanthine]
T cell proliferation
  suppression of T cell proliferation: minimal or no suppression

## Cn1cnc2c1c(=O)n(CCCC(=O)O)c(=O)n2C [M5, 1-(3-carboxypropyl)-3,7-dimethylxanthine]
T cell proliferation
  suppression of T cell proliferation: minimal or no suppression

## CC(=O)CCCCn1c(=O)c2c(ncn2C)n(C)c1=O [Pentoxifylline]
T cell proliferation
  proliferation of lymphocytes induced by anti-CD3: suppressed
CD3-positive lymphocytes; CD2-positive cells stimulated by solid-phase monoclonal antibody
  Proliferation of CD3-positive lymphocytes: strikingly inhibited
CD3-positive lymphocytes; antibody 64.1, harvested after 5 days, not reversed by IL-1 or TNF
  thymidine uptake: diminished
[1]
  levels of Steel factor transcripts: increases
[2]
  production of IL-6 transcripts: increased
[3]; 100 µM pentoxifylline, 10^-11 M IL-1, 15- and 60-second points
  cyclical formation of PA, and conversion of PA to DAG: no change
[3]; 500 µM pentoxifylline, 10^-11 M IL-1, 15 second time point
  conversion of PA to DAG: slight attenuation
[3]; 1 mM, all time points examined (15-60 seconds)
  elevation of PA and DAG by IL-1: abolishes
[4]; TNFα, Figure 13B
  proliferative effect of TNF: enhances
[4]; rhIL-1, Figure 13A
  growth stimulated by IL-1: arrested growth
[5]; 100 mg/kg intraperitoneally once daily
  tumor weight: 0.45 ± 0.2 g
[5]; 100 mg/kg intraperitoneally twice daily
  tumor weight: 0.2 ± 0.1 g
NIH3T3 cell line (D5C3); 1 mM, 33°C, 5 days
  appearance of cells: predominantly non-transformed, fibroblastic appearance
NIH3T3 cell line (D5C3); [16]
  Growth: +++
  Phenotype: +++
NIH3T3 cell line (D5C3); Mus musculus, NIH3T3, 120 h, 1 mM, 33°C, 5 days, read-out: overall number of cells diminished
  inhibition at 1000 µM: ~50%
[6]
  synthesis of IL-8: did not inhibit
[7]
  expression of cell surface antigens on lymphocytes: decreased
[8]
  TNF transcripts: suppression
[9]
  minimal effective concentration: ≥ 500 µM
[10]
  IL-2 transcripts: but not of IL-2 transcripts
[11]
  dose range resulting in inhibition of lyso PA acyl transferase: greater than 500 µM
[12]; 0.5 mM
  inhibition of PAPH: inhibits
[12]; IL-1-stimulated HMC
  dose range resulting in inhibition of phosphatidate phosphohydrolase: greater than 500 µM
[13]
  GM-CSF-stimulated growth of colonies: enhanced
[14]
  IL-2 receptor transcripts: suppression
[15]
  TNF RNA obtained in response to LPS stimulation: undetectable level
